US4347319A, “Microbiological epoxidation process” (priority 1980, dated 1982)

Tests used:
[1] = test system: Torulopsis sp. Strain A1 (NRRLY-11,419); experiment: Oxidation of sec-alcohols to ketones by cell suspensions of yeasts; type: cell-based; settings: sec-alcohol to methyl ketone
[2] = test system: cell extract of Torulopsis sp. strain A1 NRRL-Y-11,419; experiment: Oxidation of secondary alcohols to methylketone by cell extracts of yeasts; type: biochemical; settings: methanol-grown; cell extract + NAD^+; sec. alcohol to methyl ketone; gas chromatography
[3] = test system: Methylobacter bovis (CRL M1Y) NRRL B-11,216; experiment: Oxidation by washed cell suspensions of methane-grown cells; type: cell-based; settings: methane-grown cells; isopropanol to acetone, 2-butanol to 2-butanone
Experimental: The pH of the nutrient medium was adjusted to 7.0 by the addition of acid or base and 50 ml samples of the nutrient medium were charged into a plurality of 300 ml shaker flasks. The shaker flasks were inoculated with an inoculating loop of cells from an agar plate containing homogeneous colonies of the microorganisms on the plate (the purity of the isolates was confirmed by microscopic examination. The isolates had been maintained on agar plates under an atmosphere of methane and air having a 1:1 v/v gas ratio which had been transferred evey two weeks. The gaseous phase of the inoculated flasks was then replaced with a gas mixture comprised of methane and air having a ratio of 1:1 on a v/v basis. […]
The cells were harvested by centrifugation at 10,000×g. at 4° C. for 30 minutes. The cell pellet was washed twice with a 0.15 M phosphate buffer at a pH of 7.0 (containing 0.002 M MgCl2). The washed cells were then suspended in a 0.15 M phosphate buffer at pH 7.0.
A 0.5 ml sample of each washed cell suspension (2 mg cells) was put into 10 ml vials at 4° C. which were sealed with a rubber cap. The gaseous phase of the vials was removed with vacuum and then was replaced with a gas mixture of the oxidative substrate (e.g., methane) and oxygen at a 1:1 v/v ratio. The vials were then incubated at 30 ° C. on a rotary shaker at 300 rpm. Samples of product (3 μl) were withdrawn periodically with a microsyringe and the products were analyzed by gas chromatography (ionization flame detector column).
The newly discovered and isolated microorganism strains of the present invention were each grown aerobically in the presence of methane in the manner described above. The methane-grown microbial cells were then washed, recovered and put to use in oxidizing an oxidative substrate by the procedure described above except in the case of a liquid substrate 10 μl of the substrate were used.

Pichia sp. NRRL-Y-11328 = experiment: Oxidation of sec-alcohols to ketones by cell suspensions of yeasts; type: cell-based; settings: sec-alcohol to methyl ketone
[4] = test system: cell extract of Candida utilis ATCC 26,387; experiment: Oxidation of secondary alcohols to methylketone by cell extracts of yeasts; type: biochemical; settings: methanol-grown; cell extract + NAD^+; sec. alcohol to methyl ketone; gas chromatography
[5] = test system: Hansenula polymorpha ATCC 26012; experiment: Oxidation of sec-alcohols to ketones by cell suspensions of yeasts; type: cell-based; settings: sec-alcohol to methyl ketone
[6] = test system: Candida utilis ATCC 26387; experiment: as above; type: cell-based; settings: sec-alcohol to methyl ketone
[7] = test system: cell extract of Kloeckera sp. strain A2 NRRL-Y-11,420; experiment: Oxidation of secondary alcohols to methylketone by cell extracts of yeasts; type: biochemical; settings: methanol-grown; cell extract + NAD^+; sec. alcohol to methyl ketone; gas chromatography
[8] = test system: purified secondary alcohol dehydrogenase from Pichia sp. NRRL Y-11,328; experiment: Substrate specificity, electron acceptor and stoichiometry of purified yeast SADH; type: biochemical; settings: examined spectrophotometrically
[9] = test system: Methylobacter vinelandii CRL M5Y NRRL B-11,218; experiment: Sec. alcohol oxidation by cell suspensions of methanol-grown cells; type: cell-based; settings: sec. alcohol to methyl ketone
Excerpt: (§1) In this example, the procedure of Example 1 was repeated except that a plurality of the methane-utilizing methylotrophic microorganisms of the invention were each aerobically grown in a methanol-containing nutrient medium instead of a methane-containing medium. The nutrients in the medium were the same as indicated in Example 1 except that 0.4% v/v methanol was used as the alcohol dehydrogenase enzyme inducer and major source of carbon and energy for growth. Following growth the cells were harvested and washed as described in Example 1. The resting cells of the induced methanol-grown methylotrophic microorganisms were then contacted with a […] under aerobic conditions in a buffered solution by the procedure described in Example 1.

[10] = test system: Methylomonas streptobacterium CRL 17 PM3 NRRL B-11,208; experiment: as above; type: cell-based; settings: sec. alcohol to methyl ketone
Excerpt: as §1

[11] = test system: Methylobacter bovis CRL 19 NRRL B-11,217; experiment: as above; type: cell-based; settings: sec. alcohol to methyl ketone
Excerpt: as §1

[12] = test system: Methylocystis parvus CRL 18 NRRL B-11,204; experiment: as above; type: cell-based; settings: sec. alcohol to methyl ketone
Excerpt: as §1

[13] = test system: Methylococcus capsulatus CRL 25 NRRL B-11,221; experiment: as above; type: cell-based; settings: sec. alcohol to methyl ketone
Excerpt: as §1

[14] = test system: Methylomonas methanica CRL M4P NRRL B-11,205; experiment: as above; type: cell-based; settings: sec. alcohol to methyl ketone
Excerpt: as §1

[15] = test system: Methylosinus trichosporium CRL 15 NRRL B-11,202; experiment: as above; type: cell-based; settings: sec. alcohol to methyl ketone
Excerpt: as §1

[16] = test system: Methylococcus capsulatus CRL M1 NRRL B-11,219; experiment: as above; type: cell-based; settings: sec. alcohol to methyl ketone
Excerpt: as §1

[17] = test system: Methylobacterium organophilum CRL 26 NRRL B-11,222; experiment: as above; type: cell-based; settings: sec. alcohol to methyl ketone
Excerpt: as §1

[18] = test system: Methylobacter chroococcum CRL M6 NRRL B-11,214; experiment: as above; type: cell-based; settings: sec. alcohol to methyl ketone
Excerpt: as §1

[19] = test system: Methylomonas rubrum (CRL M6P) NRRL B-11,210; experiment: Oxidation by washed cell suspensions of methane-grown cells; type: cell-based; settings: methane-grown cells; isopropanol to acetone
In short: (§2)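 Methane/air (1:1)-grown cells, 30 °C, 2 d; harvested, washed 2× in 0.15 M phosphate pH 7.0 + 0.002 M MgCl2. 2 mg cells/vial, gas phase substrate:O2 1:1 v/v, 30 °C, 300 rpm. GC-FID read-out over time.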

[20] = test system: Methylosinus trichosporium (CRL 15 PM1) NRRL B-11,202; experiment: as above; type: cell-based; settings: methane-grown cells; isopropanol to acetone, 2-butanol to 2-butanone
In short: as §2

[21] = test system: Methylococcus capsulatus (CRL M1) NRRL B-11,219; experiment: as above; type: cell-based; settings: methane-grown cells; isopropanol to acetone, 2-butanol to 2-butanone
In short: as §2

[22] = test system: Methylobacterium organophilum (CRL 26 R6) NRRL B-11,222; experiment: as above; type: cell-based; settings: methane-grown cells; isopropanol to acetone, 2-butanol to 2-butanone
In short: as §2

[23] = test system: Methylobacter chroococcum (CRL M6) NRRL B-11,214; experiment: as above; type: cell-based; settings: methane-grown cells; isopropanol to acetone, 2-butanol to 2-butanone
In short: as §2

[24] = test system: Kloeckera sp. Strain A2 (NRRLY-11,420); experiment: Oxidation of sec-alcohols to ketones by cell suspensions of yeasts; type: cell-based; settings: sec-alcohol to methyl ketone
[25] = test system: cell extract of Hansenula polymorpha ATCC 26,012; experiment: Oxidation of secondary alcohols to methylketone by cell extracts of yeasts; type: biochemical; settings: methanol-grown; cell extract + NAD^+; sec. alcohol to methyl ketone; gas chromatography
[26] = test system: cell extract of Pichia sp. NRRL-Y-11,328; experiment: as above; type: biochemical; settings: methanol-grown; cell extract + NAD^+; sec. alcohol to methyl ketone; gas chromatography
[27] = test system: purified secondary alcohol dehydrogenase (SADH) from Pseudomonas sp. ATCC 21439; experiment: Kinetics and substrate specificity of purified SADH; type: biochemical; settings: 2-butanol = 100%

CC(C)O [Isopropanol]
Conversion Rate ([1]; growth substrate Ethanol): 4.2 μmoles/hr/mg of protein
Conversion Rate ([1]; growth substrate Methanol): 4.5 μmoles/hr/mg of protein
Conversion Rate ([1]; growth substrate Methylamine): 4.3 μmoles/hr/mg of protein
Conversion Rate ([1]; growth substrate Methylformate): 4.5 μmoles/hr/mg of protein
Conversion Rate ([1]; growth substrate Propylamine): 3.2 μmoles/hr/mg of protein
Conversion Rate [2]: 4.5 μmoles/hr/mg Protein
Conversion Rate to Ketone, 2 hrs. [3]: 5 μmole/2 mg protein
Conversion Rate (Pichia sp. NRRL-Y-11328; growth substrate Ethanol): 4.5 μmoles/hr/mg of protein
Conversion Rate (Pichia sp. NRRL-Y-11328; growth substrate Methanol): 5.2 μmoles/hr/mg of protein
Conversion Rate (Pichia sp. NRRL-Y-11328; growth substrate Methylamine): 4.2 μmoles/hr/mg of protein
Conversion Rate (Pichia sp. NRRL-Y-11328; growth substrate Methylformate): 4.9 μmoles/hr/mg of protein
Conversion Rate (Pichia sp. NRRL-Y-11328; growth substrate Propylamine): 3.2 μmoles/hr/mg of protein
Conversion Rate [4]: 4.5 μmoles/hr/mg Protein
Conversion Rate ([5]; growth substrate Ethanol): 5.0 μmoles/hr/mg of protein
Conversion Rate ([5]; growth substrate Methanol): 5.9 μmoles/hr/mg of protein
Conversion Rate ([5]; growth substrate Methylamine): 5.2 μmoles/hr/mg of protein
Conversion Rate ([5]; growth substrate Methylformate): 5.6 μmoles/hr/mg of protein
Conversion Rate ([5]; growth substrate Propylamine): 4.1 μmoles/hr/mg of protein
Conversion Rate ([6]; growth substrate Ethanol): 5.2 μmoles/hr/mg of protein
Conversion Rate ([6]; growth substrate Methanol): 6.2 μmoles/hr/mg of protein
Conversion Rate ([6]; growth substrate Methylamine): 5.0 μmoles/hr/mg of protein
Conversion Rate ([6]; growth substrate Methylformate): 5.6 μmoles/hr/mg of protein
Conversion Rate ([6]; growth substrate Propylamine): 4.2 μmoles/hr/mg of protein
Conversion Rate [7]: 4.8 μmoles/hr/mg Protein
oxidation by the purified enzyme [8]: catalyzed the oxidation
Conversion Rates [9]: 2.0 μmoles/hr/mg protein
Conversion Rates [10]: 0.67 μmoles/hr/mg protein
Conversion Rates [11]: 0.40 μmoles/hr/mg protein
Conversion Rates [12]: 0.25 μmoles/hr/mg protein
Conversion Rates [13]: 0.62 μmoles/hr/mg protein
Conversion Rates [14]: 2.0 μmoles/hr/mg protein
Conversion Rates [15]: 0.50 μmoles/hr/mg protein
Conversion Rates [16]: 5.0 μmoles/hr/mg protein
Conversion Rates [17]: 0.72 μmoles/hr/mg protein
Conversion Rates [18]: 1.0 μmoles/hr/mg protein
Conversion Rate to Ketone, 2 hrs. [19]: 1 μmole/2 mg protein
Conversion Rate to Ketone, 2 hrs. [20]: 3 μmole/2 mg protein
Conversion Rate to Ketone, 2 hrs. [21]: 3 μmole/2 mg protein
Conversion Rate to Ketone, 20 hrs. [21]: 15 μmole/2 mg protein
Conversion Rate to Ketone, 2 hrs. [22]: 3 μmole/2 mg protein
Conversion Rate to Ketone, 2 hrs. [23]: 1 μmole/2 mg protein
Conversion Rate to Ketone, 20 hrs. [23]: 8 μmole/2 mg protein
Conversion Rate ([24]; growth substrate Ethanol): 4.5 μmoles/hr/mg of protein
Conversion Rate ([24]; growth substrate Methanol): 4.8 μmoles/hr/mg of protein
Conversion Rate ([24]; growth substrate Methylamine): 4.0 μmoles/hr/mg of protein
Conversion Rate ([24]; growth substrate Methylformate): 4.9 μmoles/hr/mg of protein
Conversion Rate ([24]; growth substrate Propylamine): 4.0 μmoles/hr/mg of protein
Conversion Rate [25]: 4.8 μmoles/hr/mg Protein
Conversion Rate [26]: 5.5 μmoles/hr/mg Protein
relative percent rate of oxidation [27]: 85%
